Results from ChEMBL document CHEMBL5344425, “Discovery of 5-(Pyrimidin-2-ylamino)-1H-indole-2-carboxamide Derivatives as Nur77 Modulators with Selective and Potent Activity Against Triple-Negative Breast Cancer” (J Med Chem, 2023).
Calls of active or inactive are those of the source. The rule behind the calls is not given here.

Columns and labels:
[1] = tested on: MDA-MB-231; assay: Antiproliferative activity against human MDA-MB-231 cells assessed as inhibition of cell growth measured after 24 hrs by MTT assay; format: functional, cell-based; conditions: MDA-MB-231, 24 h
[2] = Cytotoxicity against human MCF-10A cells assessed as inhibition of cell growth measured after 24 hrs by MTT assay; format: toxicity, cell-based
[3] = tested on: HCC1806; assay: Antiproliferative activity against human HCC1806 cells assessed as inhibition of cell growth measured after 24 hrs by MTT assay; format: functional, cell-based; conditions: HCC1806, 24 h
[4] = tested on: BT-549; assay: Antiproliferative activity against human BT-549 cells assessed as inhibition of cell growth measured after 24 hrs by MTT assay; format: functional, cell-based; conditions: BT-549, 24 h
[5] = tested on: HT-29; assay: Antiproliferative activity against human HT-29 cells assessed as inhibition of cell growth measured after 24 hrs by MTT assay; format: functional, cell-based; conditions: HT-29, 24 h
[6] = molecular target: T1, Nuclear receptor subfamily 4immunitygroup A member 1 (Homo sapiens, UniProt P22736); assay: Binding affinity to wild type Nur77 ligand binding domain (unknown origin) assessed as decrease in fluorescence intensity incubated for 30 secs by fluorescence spectrophotometric analysis
T1 sequence (P22736 whole entry, the tested form may be a part): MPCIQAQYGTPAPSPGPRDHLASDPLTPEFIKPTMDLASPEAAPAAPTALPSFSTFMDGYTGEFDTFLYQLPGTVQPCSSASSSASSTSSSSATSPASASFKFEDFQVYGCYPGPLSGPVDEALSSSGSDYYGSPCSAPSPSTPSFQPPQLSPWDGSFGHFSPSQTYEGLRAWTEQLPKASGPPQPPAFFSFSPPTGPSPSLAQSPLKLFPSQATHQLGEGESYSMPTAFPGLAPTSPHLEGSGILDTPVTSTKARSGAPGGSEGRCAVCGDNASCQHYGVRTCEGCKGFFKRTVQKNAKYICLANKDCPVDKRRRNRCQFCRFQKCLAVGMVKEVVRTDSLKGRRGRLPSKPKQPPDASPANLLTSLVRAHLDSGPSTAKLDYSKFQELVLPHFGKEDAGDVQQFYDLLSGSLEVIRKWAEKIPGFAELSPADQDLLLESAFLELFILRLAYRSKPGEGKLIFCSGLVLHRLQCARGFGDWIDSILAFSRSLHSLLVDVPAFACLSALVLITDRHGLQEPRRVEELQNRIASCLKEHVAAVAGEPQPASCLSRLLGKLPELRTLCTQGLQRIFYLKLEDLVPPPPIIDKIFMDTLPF

[7] = molecular target: T1, Nuclear receptor subfamily 4immunitygroup A member 1; assay: Antagonist activity at Nur77 ligand binding domain (unknown origin) transfected in HEK293T cells cotransfected with pG5-Luc assessed as inhibition of receptor transcriptional activity measured after 12 hrs by luciferase reporter gene assay; format: cell-based; conditions: filed as antagonist, dose 0.5-2 µM
[8] = tested on: MDA-MB-231; assay: Induction of apoptosis in human MDA-MB-231 cells transfected with Myc-Nur77 assessed as PARP cleavage at 2 to 5 uM measured after 6 hrs by western blot analysis; format: functional, cell-based; conditions: dose 2-5 µM
[9] = tested on: Nuclear receptor subfamily 4immunitygroup A member 1 (Homo sapiens), P22736 [UNDEFINED MUTATION]; assay: Induction of degradation of Myc-tagged Nur77 R184A mutant (unknown origin) transfected in human MDA-MB-231 cells at 2 to 5 uM measured after 6 hrs by western blot analysis; format: cell-based; conditions: dose 2-5 µM
Sequence of Nuclear receptor subfamily 4immunitygroup A member 1 (Homo sapiens), P22736 [UNDEFINED MUTATION] (P22736 whole entry, looked up, stated change not applied): as the sequence (P22736 whole entry, the tested form may be a part) above

[10] = tested on: MDA-MB-231; assay: Induction of apoptosis in human MDA-MB-231 cells assessed as proportion of early apoptotic cells at 0.32 uM measured after 5 hrs by AnnexinV-FITC/PI staining based flow cytometry (reference value: 3.35%); format: functional
[11] = tested on: MDA-MB-231; assay: Induction of apoptosis in human MDA-MB-231 cells assessed as proportion of late apoptotic cells at 0.32 uM measured after 5 hrs by AnnexinV-FITC/PI staining based flow cytometry (reference value: 2.55%); format: functional
[12] = tested on: MDA-MB-231; assay: Induction of apoptosis in human MDA-MB-231 cells assessed as proportion of late apoptotic cells at 0.63 uM measured after 5 hrs by AnnexinV-FITC/PI staining based flow cytometry (reference value: 2.55%); format: functional
[13] = tested on: MDA-MB-231; assay: Induction of apoptosis in human MDA-MB-231 cells assessed as proportion of late apoptotic cells at 2.5 uM measured after 5 hrs by AnnexinV-FITC/PI staining based flow cytometry (reference value: 2.55%); format: functional
[14] = tested on: MDA-MB-231; assay: Induction of apoptosis in human MDA-MB-231 cells assessed as proportion of late apoptotic cells at 5 uM measured after 5 hrs by AnnexinV-FITC/PI staining based flow cytometry (reference value: 2.55%); format: functional
[15] = tested on: MDA-MB-231; assay: Induction of apoptosis in human MDA-MB-231 cells transfected with ctr siRNA assessed as early apoptotic cells at 2 uM measured after 6 hrs by AnnexinV-FITC/PI staining based flow cytometry (reference value: 1.88%); format: functional
[16] = tested on: MDA-MB-231; assay: Induction of apoptosis in human MDA-MB-231 cells transfected with Nur77 siRNA assessed as late apoptotic cells at 1 uM measured after 6 hrs by AnnexinV-FITC/PI staining based flow cytometry (reference value: 3.97%); format: functional
[17] = tested on: MDA-MB-231; assay: Induction of apoptosis in human MDA-MB-231 cells transfected with Nur77 siRNA assessed as early apoptotic cells at 2 uM measured after 6 hrs by AnnexinV-FITC/PI staining based flow cytometry (reference value: 1.88%); format: functional
[18] = tested on: MDA-MB-231; assay: Induction of apoptosis in human MDA-MB-231 cells assessed as PARP cleavage at 2.5 uM pretreated with proteasome and calpain inhibitor, MG132 for 4 hrs followed by compound addition and measured after 6 hrs by western blot analysis; format: functional, cell-based
[19] = tested on: MDA-MB-231; assay: Induction of apoptosis in human MDA-MB-231 cells assessed as PARP cleavage at 2.5 uM pretreated with PI3K and autophagy inhibitor, Wortmannin for 4 hrs followed by compound addition and measured after 6 hrs by western blot analysis; format: functional, cell-based
[20] = molecular target: T1, Nuclear receptor subfamily 4immunitygroup A member 1; assay: Modulation of Nur77 in human MDA-MB-231 cells assessed as increase in TP53 phosphorylation at Ser392 residue at 0.31 to 5 uM measured after 6 hrs by western blot analysis; format: cell-based; conditions: dose 0.31-5 µM
[21] = Toxicity in Zebra fish AB embryo assessed as mortality rate at 1.25 to 5 uM measured after 24 to 72 hrs; set-up: species or system Danio rerio; conditions: zebrafish, dose lower 1.25 µM, time lower 24 hrs, dose upper 5 µM, time upper 72 hrs
[22] = Toxicity in Zebra fish AB embryo assessed as mortality rate at 1.25 uM measured after 24 to 72 hrs; set-up: species or system Danio rerio; conditions: zebrafish, 1.25 µM, time 24-72 hrs
[23] = Toxicity in BALB/c mouse xenografted with human MDA-MB-231 cells assessed as abnormal behaviour at 10 mg/kg, ip qd for 16 days; format: organism-based; conditions: in vivo, 384 h, time 16 day
[24] = Toxicity in BALB/c mouse xenografted with human MDA-MB-231 cells assessed as morphological changes in heart at 10 mg/kg, ip qd for 16 days by Hematoxylin-Eosin staining based analysis; format: organism-based; conditions: in vivo, 384 h, time 16 day
[25] = Toxicity in BALB/c mouse xenografted with human MDA-MB-231 cells assessed as morphological changes in liver at 10 mg/kg, ip qd for 16 days by Hematoxylin-Eosin staining based analysis; format: organism-based; conditions: in vivo, 384 h, time 16 day

What does the source list for `CCN(CC)CCCNC(=O)c1cc2cc(Nc3nccc(-c4sc(NC)nc4C)n3)ccc2[nH]1`?
IC50 [1]: 400 nM; IC50 at 24 h [2]: 48000 nM; IC50 [3]: 380 nM; IC50 [4]: 2120 nM; IC50 [5]: 47200 nM; Kd [6]: 154 nM; inhibition [7]: Dose-Dependent Effect; Activity [8]: Active; Activity [9]: inactive; Activity [10]: 9.81%; Activity [11]: 5.29%; Activity [12]: 5.16%; Activity [13]: 16.69%; Activity [14]: 21.84%; Activity [15]: 19.23%; Activity [16]: 2.24%; Activity [17]: 2.5%; Activity [18]: inactive; Activity [19]: Active; Activity [20]: inactive; Activity [21]: Non-Toxic; Activity [22]: Non-Toxic; Activity [23]: Non-Toxic; Activity [24]: Non-Toxic; Activity [25]: Non-Toxic
